According to patent publication US20120009593A1, “ANALYSIS METHOD FOR THE IN VITRO DIAGNOSIS OF BENIGN PROSTATIC HYPERPLASIA (BPH) IN DOGS BY ASSAYING CANINE PROSTATE SPECIFIC ESTERASE, AND BPH TREATMENT FOLLOW UP” (VIRBAC SA, priority 2009, published 2012):
“And” between values parts separate entries of the source, which are not always exact repeats. Equal values may be shown once.

Experiments:
dogs with signs of BPH [1] = assay: Anti-androgen treatment follow up: serum CPSE level in treated dogs; format: in vivo, dog
Experimental: The CPSE concentration in the serum or plasma samples was determined by sandwich ELISA. 96-well microplates (Stripwell Costar/Corning, N.Y., USA) were coated overnight at +4° C. with monoclonal or polyclonal anti-CPSE antibodies, at a concentration of 5 μg/ml in a carbonate buffer at pH 9.6. After 4 washes, the wells were incubated for 1 hour at 37° C. with a saline phosphate buffer at pH 7.2, while adding 5% bovine serum albumin. Finally, the plates were incubated for 30 minutes at room temperature with a saline phosphate buffer at pH 7.2 to which 10% sucrose was added. Once emptied, the microplates were dried overnight under vacuum, and then packaged in the presence of a desiccant until use.
The assay of samples is carried out by dispensing […] of serum or plasma (heparinized plasma or EDTA plasma) into each of the wells. After 1 hour at 37° C., the microplate is washed. 100 μl of monoclonal or polyclonal anti-CPSE antibodies conjugated to peroxidase are dispensed. The wells are incubated for 1 hr at 37° C. and washed again. The antibodies remaining attached to the walls are developed by adding 3,3′,5,5′tetramethyl benzidine. After completion of the reaction, the absorbance is read at 450 nm.
Five dogs with signs of BPH (see inclusion criteria above) were treated with osaterone acetate (YPOZANE®, Virbac). This molecule is an anti-androgen, which acts on the prostatic parenchyma. The CPSE level was measured at days D15 and D0. The dogs were treated as recommended and were given from 0.25-0.5 mg/kg/day of osaterone acetate, for a period of 7 days. Serum was collected prior to any treatment and after 15 days. The CPSE level was measured in the different samples.
Dogs with signs of PBH were treated with osaterone acetate, as recommended by the manufacturer. The serum CPSE level in these dogs was measured before the treatment and after 15 days.

dogs with signs of BPH [2] = assay: Anti-androgen treatment follow up: prostate size by digital rectal examination; format: in vivo, dog; details: all five treated dogs, after treatment

SMILES: CC(=O)O[C@]1(C(C)=O)CC[C@H]2[C@@H]3C=C(Cl)C4=CC(=O)OC[C@]4(C)[C@H]3CC[C@@]21C [osaterone acetate]
- change in serum CPSE level between before treatment and treatment completed (dogs with signs of BPH [1]; five dogs with signs of BPH, D0 vs D15): decrease in the serum CPSE level
- CPSE (ng/ml), D + 15 (dogs with signs of BPH [1]; serum, individual Dogs 1-5 with signs of BPH, D+15, 0.25-0.5 mg/kg/day for 7 days): 15 ng/mL and 21 ng/mL and 40 ng/mL and 10 ng/mL and 36 ng/mL
- CPSE (ng/ml), Visit 2 (dogs with signs of BPH [1]; serum, individual dogs C1-C5 with signs of BPH, 15 days after first sampling, 0.25-0.5 mg/kg/day for 7 days): 15 ng/mL and 21 ng/mL and 40 ng/mL and 10 ng/mL and 36 ng/mL
- size of the prostate by digital rectal examination (dogs with signs of BPH [2]): return to a normal size of the prostate
